Results reported in patent publication US6737383B1, “Herbicidal oxadiazolidines” (priority 1999, dated 2004).

Columns and labels:
[1] = test system: purple nutsedge; assay: Test B pre/postemergence purple nutsedge; format: in vivo, Cyperus rotundus
In short: (§1)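 Response is a visual 0-to-10 score relative to untreated plants, where 0 means no effect and 10 means complete control, taken twelve to sixteen days after application. Treatments went onto soil at planting and onto foliage of 1- to 4-leaf plants, using a surfactant-containing non-phytotoxic solvent.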

[2] = test system: wild oat; assay: Test B pre/postemergence wild oat; format: in vivo, Avena fatua; settings: for Plant response rating, Wild oats: scale of 0 to 10 where 0 is no effect and 10 is complete control
In short: as §1

[3] = test system: giant foxtail; assay: Test B pre/postemergence giant foxtail; format: in vivo, Setaria faberii; settings: for Plant response rating, Giant foxtail: scale of 0 to 10 where 0 is no effect and 10 is complete control
In short: as §1

[4] = test system: crabgrass; assay: Test B pre/postemergence crabgrass; format: in vivo, Digitaria sanguinalis; settings: for Plant response rating, Crabgrass: scale of 0 to 10 where 0 is no effect and 10 is complete control
In short: as §1

[5] = test system: surinam grass; assay: Test B pre/postemergence surinam grass; format: in vivo, Brachiaria decumbens; settings: for Plant response rating, B. signalgrass: scale of 0 to 10 where 0 is no effect and 10 is complete control
In short: as §1

[6] = test system: rape; assay: Test B pre/postemergence rape; format: in vivo, Brassica napus; settings: for Plant response rating, Rape: scale of 0 to 10 where 0 is no effect and 10 is complete control
In short: as §1

[7] = test system: cocklebur; assay: Test B pre/postemergence cocklebur; format: in vivo, Xanthium strumarium; settings: for Plant response rating, Cocklebur: scale of 0 to 10 where 0 is no effect and 10 is complete control
In short: as §1

[8] = test system: wheat; assay: Test B pre/postemergence wheat; format: in vivo, Triticum aestivum; settings: for Plant response rating, Wheat: scale of 0 to 10 where 0 is no effect and 10 is complete control
In short: as §1

[9] = test system: velvetleaf; assay: Test B pre/postemergence velvetleaf; format: in vivo, Abutilon theophrasti; settings: for Velvetleaf plant response rating: Rate 125 g/ha, scale 0 to 10, 0 is no effect, 10 is complete control; for Plant response rating, Velvetleaf: scale of 0 to 10 where 0 is no effect and 10 is complete control
In short: as §1

[10] = test system: sugar beet; assay: Test B pre/postemergence sugar beet; format: in vivo, Beta vulgaris; settings: for Plant response rating, Sugarbeets: scale of 0 to 10 where 0 is no effect and 10 is complete control
In short: as §1

[11] = test system: corn; assay: Test B pre/postemergence corn; format: in vivo, Zea mays; settings: for Plant response rating, Corn: scale of 0 to 10 where 0 is no effect and 10 is complete control
In short: as §1

[12] = test system: bedstraw; assay: Test B pre/postemergence bedstraw; format: in vivo, Galium aparine; settings: Preemergence
In short: as §1

[13] = test system: morningglory; assay: Test B pre/postemergence morningglory; format: in vivo, Ipomoea hederacea; settings: for Plant response rating, Morningglory: scale of 0 to 10 where 0 is no effect and 10 is complete control
In short: as §1

[14] = test system: blackgrass; assay: Test B pre/postemergence blackgrass; format: in vivo, Alopecurus myosuroides; settings: for Plant response rating, Blackgrass: scale of 0 to 10 where 0 is no effect and 10 is complete control
In short: as §1

[15] = test system: soybean; assay: Test B pre/postemergence soybean; format: in vivo, Glycine max; settings: for Plant response rating, Soybean: scale of 0 to 10 where 0 is no effect and 10 is complete control
In short: as §1

[16] = test system: pigweed; assay: Test B pre/postemergence pigweed; format: in vivo, Amaranthus retroflexus; settings: for Plant response rating, Redroot pigweed: scale of 0 to 10 where 0 is no effect and 10 is complete control
In short: as §1

[17] = Postemergence, Rate 31 g/ha, visual rating, scale 0 to 10 (0 no effect, 10 complete control)
[18] = Postemergence, Rate 62 g/ha, scale of 0 to 10, 0 is no effect, 10 is complete control
[19] = Postemergence, Rate 125 g/ha, scale 0 to 10, 0 is no effect, 10 is complete control
[20] = Preemergence, Rate 125 g/ha, scale 0 to 10, 0 is no effect, 10 is complete control
[21] = Preemergence, Rate 31 g/ha, visual rating, scale 0 to 10 (0 no effect, 10 complete control)

CC(C)N(C(=O)n1oc(=O)n(C[Si](C)(C)C)c1=O)c1ccc(F)cc1F [Compound 518]
3: B. signalgrass plant response rating [5, 17] | B. signalgrass plant response rating [5, 20] | Wheat plant response rating (0 to 10 scale) ([8]; Preemergence, Rate 250 g/ha) | Sugarbeets plant response rating [10, 19] | Plant response rating, Sugarbeets ([10]; Rate 250 g/ha, Postemergence)
5: Morningglory plant response rating [13, 17] | Morningglory plant response rating [13, 18] | Morningglory plant response rating [13, 19] | Soybean plant response rating [15, 19] | Plant response rating, Soybean ([15]; Rate 250 g/ha, Postemergence)
4: Plant response rating, Wild oats ([2]; Preemergence, Rate 62 g/ha) | Plant response rating, Velvetleaf ([9]; Rate 250 g/ha, Postemergence) | Blackgrass plant response rating [14, 17] | Blackgrass plant response rating [14, 18] | Blackgrass plant response rating [14, 21] | Soybean plant response rating [15, 17] | Soybean plant response rating [15, 18] | Redroot pigweed plant response rating (0 to 10 scale) ([16]; Preemergence, Rate 250 g/ha)
0: Nutsedge plant response rating [1, 17] | Nutsedge plant response rating [1, 18] | Nutsedge plant response rating [1, 19] | Plant response rating, Nutsedge ([1]; Preemergence, Rate 62 g/ha, scale of 0 to 10 where 0 is no effect and 10 is complete control) | Nutsedge plant response rating [1, 20] | Nutsedge plant response rating (0 to 10 scale) ([1]; Preemergence, Rate 250 g/ha) | Wild oats plant response rating [2, 17] | Wild oats plant response rating [2, 18] | Giant foxtail plant response rating [3, 17] | Giant foxtail plant response rating [3, 18] | Giant foxtail plant response rating [3, 19] | Giant foxtail plant response rating [3, 21] | Plant response rating, Giant foxtail ([3]; Preemergence, Rate 62 g/ha) | Giant foxtail plant response rating [3, 20] | Giant foxtail plant response rating (0 to 10 scale) ([3]; Preemergence, Rate 250 g/ha) | Crabgrass plant response rating [4, 17] | Crabgrass plant response rating [4, 18] | Crabgrass plant response rating [4, 21] | Plant response rating, Crabgrass ([4]; Preemergence, Rate 62 g/ha) | Crabgrass plant response rating [4, 20] | Crabgrass plant response rating (0 to 10 scale) ([4]; Preemergence, Rate 250 g/ha) | B. signalgrass plant response rating [5, 21] | Plant response rating, B. signalgrass ([5]; Preemergence, Rate 62 g/ha) | Rape plant response rating [6, 17] | Rape plant response rating [6, 18] | Plant response rating, Rape ([6]; Preemergence, Rate 62 g/ha) | Rape plant response rating [6, 20] | Rape plant response rating (0 to 10 scale) ([6]; Preemergence, Rate 250 g/ha) | Cocklebur plant response rating [7, 17] | Cocklebur plant response rating [7, 18] | Cocklebur plant response rating [7, 19] | Cocklebur plant response rating [7, 21] | Plant response rating, Cocklebur ([7]; Preemergence, Rate 62 g/ha) | Cocklebur plant response rating [7, 20] | Cocklebur plant response rating (0 to 10 scale) ([7]; Preemergence, Rate 250 g/ha) | Plant response rating, Cocklebur ([7]; Rate 250 g/ha, Postemergence) | Wheat plant response rating [8, 17] | Wheat plant response rating [8, 18] | Wheat plant response rating [8, 19] | Plant response rating, Wheat ([8]; Preemergence, Rate 62 g/ha) | Plant response rating, Wheat ([8]; Rate 250 g/ha, Postemergence) | Plant response rating, Velvetleaf ([9]; Preemergence, Rate 62 g/ha) | Velvetleaf plant response rating ([9]; Preemergence) | Velvetleaf plant response rating (0 to 10 scale) ([9]; Preemergence, Rate 250 g/ha) | Sugarbeets plant response rating [10, 17] | Sugarbeets plant response rating [10, 18] | Plant response rating, Sugarbeets ([10]; Preemergence, Rate 62 g/ha) | Corn plant response rating [11, 17] | Corn plant response rating [11, 18] | Corn plant response rating [11, 19] | Corn plant response rating [11, 21] | Plant response rating, Corn ([11]; Preemergence, Rate 62 g/ha) | Corn plant response rating [11, 20] | Corn plant response rating (0 to 10 scale) ([11]; Preemergence, Rate 250 g/ha) | Plant response rating, Corn ([11]; Rate 250 g/ha, Postemergence) | Bedstraw plant response rating ([12]; Rate 31 g/ha, visual rating, scale 0 to 10 (0 no effect, 10 complete control)) | Plant response rating, Bedstraw ([12]; Rate 62 g/ha, scale of 0 to 10 where 0 is no effect and 10 is complete control) | Bedstraw plant response rating ([12]; Rate 125 g/ha, scale 0 to 10, 0 is no effect, 10 is complete control) | Bedstraw plant response rating (0 to 10 scale) ([12]; Rate 250 g/ha) | Plant response rating, Morningglory ([13]; Preemergence, Rate 62 g/ha) | Morningglory plant response rating [13, 20] | Morningglory plant response rating (0 to 10 scale) ([13]; Preemergence, Rate 250 g/ha) | Plant response rating, Soybean ([15]; Preemergence, Rate 62 g/ha) | Soybean plant response rating [15, 20] | Soybean plant response rating (0 to 10 scale) ([15]; Preemergence, Rate 250 g/ha) | Redroot pigweed plant response rating [16, 17] | Redroot pigweed plant response rating [16, 18] | Redroot pigweed plant response rating [16, 19] | Plant response rating, Redroot pigweed ([16]; Rate 250 g/ha, Postemergence)
8: Wild oats plant response rating (0 to 10 scale) ([2]; Preemergence, Rate 250 g/ha) | Plant response rating, Morningglory ([13]; Rate 250 g/ha, Postemergence) | Blackgrass plant response rating [14, 20]
2: Wild oats plant response rating [2, 19] | Plant response rating, Wild oats ([2]; Rate 250 g/ha, Postemergence) | Plant response rating, Giant foxtail ([3]; Rate 250 g/ha, Postemergence) | Crabgrass plant response rating [4, 19] | Wheat plant response rating [8, 20] | Velvetleaf plant response rating ([9]; Postemergence) | Sugarbeets plant response rating [10, 20] | Sugarbeets plant response rating (0 to 10 scale) ([10]; Preemergence, Rate 250 g/ha) | Plant response rating, Redroot pigweed ([16]; Preemergence, Rate 62 g/ha) | Redroot pigweed plant response rating [16, 20]
7: B. signalgrass plant response rating [5, 19] | Plant response rating, B. signalgrass ([5]; Rate 250 g/ha, Postemergence) | Rape plant response rating [6, 19] | Plant response rating, Rape ([6]; Rate 250 g/ha, Postemergence) | Blackgrass plant response rating [14, 19] | Plant response rating, Blackgrass ([14]; Preemergence, Rate 62 g/ha) | Blackgrass plant response rating (0 to 10 scale) ([14]; Preemergence, Rate 250 g/ha) | Plant response rating, Blackgrass ([14]; Rate 250 g/ha, Postemergence)
10: Plant response rating, Crabgrass ([4]; Rate 250 g/ha, Postemergence) | B. signalgrass plant response rating (0 to 10 scale, 0 is no effect, 10 is complete control) ([5]; Preemergence, Rate 250 g/ha)
6: Wild oats plant response rating [2, 20]
